Each structure is given as a SMILES string.

In general, melting point refers to the temperature, or range, at which the solid turns liquid.

Consider `COc1cc2nc(N3CCN(c4nc5cccccc-5n4)CC3)nc(N)c2cc1OC`, for which the melting point was 189 to 193 °C.

On to `O=C(NC(=O)N1CCC(Oc2ccc(Cl)cc2)CC1)c1ccc(O)cc1`, for which the melting point came to 189 °C.

Molecule `COC(=O)c1ccc(S(C)(=O)=O)c(-c2nccs2)c1Cl` registered a melting point of 135 to 138 °C.

Molecule `COc1ccc(CC(N)(C#N)CF)cc1OC` (stereo unspecified) displayed a melting point of 76 °C.

Take `COc1ccc(Br)cc1-c1cc(-c2cccc(Br)c2)no1`: the melting point amounted to 156 °C.

As for `Cc1cc(CCCCCOc2c(Cl)cc(-c3nc(C)c(C)s3)cc2Cl)on1`, the melting point was in the range of 57 to 58 °C.

In the case of `CSC(=Nc1ccccc1C(=O)NC(C)C)NC(=O)c1ccccc1`, the melting point lay in the range of 117 to 120 °C.

On to `O=C(O)COCCC1CCCN(c2cnc(-c3ccccc3)c(-c3ccccc3)n2)C1` (stereo unspecified), for which the melting point lay in the range of 139 to 140 °C.

Consider `CCCCc1c(/C=C/c2ccccc2OCC)nc2ccc(C(=O)O)cn2c1=O`, for which the melting point lay within 265 to 268 °C.

In the case of `COC(=O)CC(C(=O)OC)N1CCC(Nc2ncc3ncnc(Nc4cccc(Br)c4)c3n2)CC1` (stereo unspecified), the melting point worked out at 193 °C.

`CC(=O)C(C)(C)COS(=O)(=O)c1ccc(C)cc1` yielded a melting point of 49 to 52 °C.

Take `CC(=O)c1ccc(-c2ccc(F)cc2F)c(N)c1`: the melting point fell in the range of 93 to 95 °C.

The molecule `Cc1cc(COc2nn3c(-c4cc(C)on4)nnc3c3ccccc23)no1` registered a melting point of 243 to 245 °C.

In turn, `CNC(=O)Nc1cc(CNc2ncccc2C(=O)OC)ccn1` came in with a melting point of 145 to 146 °C.

With `CC(=O)Oc1ccc(C2(c3ccc(OC(C)=O)cc3)C(Cl)(Cl)C23CCCCC3)cc1`, the melting point is 162 to 163 °C.

In turn, `CSC1C(=O)Nc2ccc(Oc3ccc(F)c(C(F)(F)F)c3Cl)cc21` (stereo unspecified) came in with a melting point of 137 to 142 °C.

In the case of `COc1ccc(OC)c2c1C(=O)c1c(C)oc(C)c1C2=O`, the melting point is 227 to 228 °C.

For `CCOC(=O)c1ccc(N2CSCC2=O)cc1`, the melting point lay in the range of 68 to 69 °C.

In turn, `O=c1c(Cc2ccccc2)c(O)c2cccc3c2n1C(c1ccccc1)C3` (stereo unspecified) had a melting point of 252 to 254 °C.

The molecule `CN(C)C=Nc1ncc(S(=O)(=O)NC(C)(C)C)c(O)n1` showed a melting point of 258 to 261 °C.

`O=C(Nc1cccc2c1CC(O)CC2)c1ccc(-c2ccc(F)c(F)c2)cc1` (stereo unspecified) registered a melting point of 210 to 213 °C.

The molecule `CC(C)CP(=O)(CCC(=O)O)CCC(=O)O` registered a melting point of 186 to 187 °C.

The molecule `CCC(Cc1ccc(OC)c(S(N)(=O)=O)c1)NC(=O)C(F)(F)F` (stereo unspecified) returned a melting point of 189 to 192 °C.

`Cc1cc(SCc2ccc(-c3ccc(C(F)(F)F)cn3)cc2)c2c(c1OCC(=O)O)CCC2` showed a melting point of 186 °C.

`O=c1c2cc3ccccc3cc2oc2cc(OCC3CO3)cc(O)c12` (stereo unspecified) gave a melting point of 201 to 202 °C.

Regarding `CC(C)(C)OC(=O)[C@@H]1CS[C@H](c2ccccc2)N1C(=O)CNC(=O)Nc1cccc(CCO)c1`, the melting point was found to be 164 °C.

`N#Cc1ccc(N(Cc2ccc(OCc3ccccc3)cc2)n2cnnc2)cc1-c1ccco1` returned a melting point of 181 to 182 °C.

`CC=CC(=O)Nc1n[nH]c2cc(Br)ccc12` displayed a melting point of 232 °C.

`CC1CC(=O)NN=C1c1ccc(N2CCN(c3ncccn3)CC2)c([N+](=O)[O-])c1` (stereo unspecified) gave a melting point of 232 to 233 °C.

In turn, `N#Cc1ccc(C=C(C(=O)C2CC2)C(=O)C2CC2)cc1` yielded a melting point of 100 to 102 °C.

`C#CC1(c2ccc(OC(F)F)c(OCC3CC3)c2)CCC(=O)CC1` displayed a melting point of 75 to 77 °C.

`CN1C(=O)C(=NO)C(=NCCCCCC(=O)O)N(C)C1=O` gave a melting point of 246 to 248 °C.

Turning to `O=C(OCc1ccccc1)N1CC(O)(C(=O)O)C1`, the melting point fell in the range of 134 to 136 °C.

`COC(=O)c1c(C)nc(C)c(C(=O)OC)c1-c1ccccc1F`: the melting point fell in the range of 94 to 96 °C.

Consider `CC(=O)c1c[nH]c(CO)n1`, for which the melting point is 147 to 148 °C.

Molecule `CCOc1cc2ncc(C#N)c(C)c2cc1OCC` yielded a melting point of 140 to 145 °C.

For the molecule `CC(C)Sc1c(C(=O)O)oc(Br)c1Br`, the melting point is 130 to 131 °C.

`CCCCOCCOc1ccc(-c2ccc3c(c2)C=C(C(=O)Nc2ccc(C(O)c4ccccn4)c(C)c2)CCN3C(=O)C(F)(F)F)cc1` (stereo unspecified) returned a melting point of 122 to 125 °C.

Regarding `NP(N)(=O)NC(=O)CCc1ccccc1`, the melting point was more than 300 °C.

Molecule `Cc1ncc2n1-c1ccc(Cl)cc1N(c1ccccc1)C(=O)C2` came in with a melting point of 276 to 278 °C.

Turning to `Cc1ccc(S(=O)(=O)ON=C2C3=C(C=C4OCCC42)CCCO3)cc1` (stereo unspecified), the melting point worked out at 118 °C.

Turning to `CNCCc1c(C)[nH]c2ccc(S(=O)(=O)c3ccccc3)cc12`, the melting point lay within 165 to 166 °C.

`NC(=O)c1cnc2sccc2c1Cl` had a melting point of 159 to 160 °C.

As for `Cc1nc(N2CCN(CC3CC3)C2=O)sc1C(=O)NCc1ccncc1`, the melting point was more than 200 °C.

Turning to `O=C(COc1ccccc1)COc1ccccc1`, the melting point was 55 to 57 °C.

The molecule `NCCc1ccc(N)cn1` gave a melting point of 42 to 45 °C.

The molecule `CC(=O)c1ccc(CCOc2ccc(CC3SC(=O)NC3=O)cc2)nc1` (stereo unspecified) yielded a melting point of 114 to 115 °C.

Regarding `CN1CCN(c2nc(N)c3cc(Cl)ccc3n2)CC1`, the melting point was 176 to 178 °C.

`O=C(O)c1snc(-c2ccccc2)c1O`: the melting point lay within 161 to 163 °C.

For the molecule `CC(C)(C)CC1NC(C(=O)NC2CCC(O)CC2)C(c2cccc(Cl)c2F)C12C(=O)Nc1cc(Cl)ccc12` (stereo unspecified), the melting point turned out to be 176 °C.

The molecule `COC[C@H](C)Oc1cc(N(C)S(=O)(=O)c2ccccn2)c2[nH]c(C3=NCC(CN4CCS(=O)CC4)S3)cc2c1` (stereo partly specified) gave a melting point of 175 to 176 °C.

The molecule `CCc1nnc(-c2ccc(O)cc2)n1-c1ccccc1` had a melting point of 275 °C.

Regarding `O=C(N[C@H](Cc1ccc(C(F)(F)F)o1)[C@@H](O)c1ccc(F)cc1)c1ccc(F)c2ccccc12` (racemic), the melting point lay within 153 to 154 °C.

On to `O=C(Nc1ccc(C(=O)N2CCCCc3ccccc32)cc1)c1ccccc1OCCCCCCN1C(=O)c2ccccc2C1=O`, for which the melting point lay within 145 to 146 °C.

With `Cc1csc2c1-n1cccc1C2=NO`, the melting point stood at 198 °C.

For `CNS(=O)(=O)c1ccc2c(c1)S(=O)(=O)NC1CCCN21` (stereo unspecified), the melting point lay in the range of 244 to 245 °C.

`O=C(O)Cc1nn(-c2nc3ccccc3s2)c(=O)c2ccccc12` yielded a melting point of 205 °C.

Molecule `CN(C)CCC(=O)Nc1ccc2c(=O)c3ccc(NC(=O)CCN(C)C)cc3[nH]c2c1` displayed a melting point of more than 320 °C.

`CNC(=O)c1cc2c(Oc3ccc(Br)cc3)cncc2s1` returned a melting point of 78 to 80 °C.

For the molecule `CSC(CC(CCCl)C(=O)c1ccccc1)C(N)C(N)=O` (stereo unspecified), the melting point is 174 °C.

In the case of `COC(=O)Cc1c(C)n(-c2ncnc3cc(Cl)ccc23)c2ccc(OC)cc12`, the melting point was 112 to 114 °C.

In turn, `COc1ccc(C(CC(=O)Nc2ccc(NC(=O)Nc3ccccc3C)cc2)NC(=O)c2ccc(C(=O)O)cc2)cc1OC` (stereo unspecified) yielded a melting point of 166 °C.

In turn, `Cc1nc(NC(=O)c2cnn3c(C(F)(F)F)cc(-c4ccc(C(F)(F)F)c(Cl)c4)nc23)sc1S(N)(=O)=O` gave a melting point of 299 °C.

Molecule `COC(=O)C1C(Sc2ccccc2)CC2CCC1N2C` (stereo unspecified) yielded a melting point of 55 to 57 °C.

Molecule `CCOCCC(Cc1ccc(NC(=O)NC(=O)c2ccc(C(N)=S)cc2)cc1)C(=O)OC(C)(C)C` (stereo unspecified) came in with a melting point of 199 to 201 °C.

The molecule `Clc1ccc2[nH]cc(C3=CCN(CCOc4ccccc4)CC3)c2c1` showed a melting point of 172 °C.

The molecule `Cc1nc2c(OCc3c(Cl)ccc(N(C)C(=O)CNC(N)=O)c3Cl)cccn2c1Br` came in with a melting point of 147 to 149 °C.

`Cc1[nH]c2cccc3c2c1CC1C3=CC(C(=O)NN)CN1C` (stereo unspecified) displayed a melting point of 235 to 240 °C.

On to `COc1ncccc1-c1cnn2ccc(N3CCN(C(=O)OC(C)C)CC3)nc12`, for which the melting point was 131 to 132 °C.

In turn, `CC#CCOc1ccc(S(=O)(=O)NC(C(=O)NO)c2ccc(OCCN3CCN(C(=O)OC(C)(C)C)CC3)cc2)cc1` (stereo unspecified) returned a melting point of 92 to 95 °C.

On to `CC(C)NC(=O)NCCCOc1cc(CN2CCCCC2)ccn1`, for which the melting point lay within 58 to 60 °C.

Molecule `CCCCCCCCCCCCCCCCCCSCCCCCC(N)=O` returned a melting point of 105 °C.

As for `Nc1c([N+](=O)[O-])cnn1-c1c(Cl)cc(Cl)cc1Cl`, the melting point is 218 to 220 °C.

For the molecule `CC(C)C(NC(=O)OCc1ccccn1)C(=O)NC(Cc1ccccc1)C(O)C(O)C(Cc1ccccc1)NC(=O)OC(C)(C)C` (stereo unspecified), the melting point was in the range of 202 to 204 °C.

On to `Cc1cc2c(c(C)c1NC(=O)CC(C)(C)C)C(O)C(C)(C)O2` (stereo unspecified), for which the melting point was 217 to 218 °C.

In turn, `CCOC(=O)C(C)c1ccc2cc(O)ccc2c1` (stereo unspecified) registered a melting point of 93 to 98 °C.

`O=C1c2ccccc2S(=O)(=O)N1CBr` yielded a melting point of 155 to 157 °C.

Molecule `OCCc1c[nH]c2ccc(F)cc12` came in with a melting point of 59 to 61 °C.

On to `C=C(c1ccccc1OCCCCl)c1cccc2[nH]ccc12`, for which the melting point lay in the range of 70 to 72 °C.

For `c1ccc(C(Nc2ccncc2)c2ccccc2)cc1`, the melting point was 148 to 150 °C.

For the molecule `O=C(Oc1ccccc1)c1ncn2c1CN(C(=O)N1CCCC1)c1ccccc1-2`, the melting point lay in the range of 196 to 199 °C.

Molecule `CCn1cc(C(=O)O)c(=O)c2cnc(N3CCN(C)CC3)nc21` yielded a melting point of 232 to 233 °C.

Turning to `CN(CCC=C1c2ccccc2COc2ccccc21)CCCCCC(O)c1ccc(C(C)(C)C)cc1` (stereo unspecified), the melting point was in the range of 73 to 75 °C.

Regarding `O=C1c2ccccc2CN1CCC#Cc1ccccn1`, the melting point lay in the range of 94 to 98 °C.

For the molecule `CCC(C)COc1ccc(-c2ccc(O)cc2)cc1Br` (stereo unspecified), the melting point was 75 to 76.5 °C.

Consider `COc1nc(NC#N)nc(OC)n1`, for which the melting point was more than 300 °C.

Molecule `CC(=O)C(=Cc1ccc(C#N)cc1)C(=O)C1CC1` registered a melting point of 83 to 85 °C.

Take `NS(=O)(=O)c1ccc(C2CCN(c3cc([N+](=O)[O-])ccn3)CC2)cc1`: the melting point lay within 215 to 217 °C.

`COc1cc(N)ccc1-c1cnn(C)c1` gave a melting point of 129 to 131 °C.

As for `CCCCn1c(CCOC)nc2c(N)nc3ccccc3c21`, the melting point is 149 to 151 °C.

Take `CN(C)CCOc1ccc(C=O)c(O)c1`: the melting point was in the range of 82 to 83 °C.

The record behind these values is a melting point compilation (Tetko et al.; mined from patent text by program, amines drawn as free bases though some values may be those of a salt).
